Laboratory results taken from patent US12043632B2, “6-heteroaryloxy benzimidazoles and azabenzimidazoles as JAK2 inhibitors” (Ajax Therapeutics, Inc., priority 2020, dated 2024).

Molecular target: T1, JAK2 (JH1domain-catalytic, Y1007F,Y1008F) kinase (Homo sapiens, UniProt O60674, Y1007F/Y1008F)
T1 construct: JAK2 (JH1domain-catalytic, Y1007F,Y1008F) kinase was expressed as N-terminal fusion; made in house; host or cells: transiently transfected HEK293 cells
Assay: JAK2 JH1 Domain Binding Assay
Details: qPCR readout

T1 sequence (O60674 849-1124 Y1007F/Y1008F limits assumed): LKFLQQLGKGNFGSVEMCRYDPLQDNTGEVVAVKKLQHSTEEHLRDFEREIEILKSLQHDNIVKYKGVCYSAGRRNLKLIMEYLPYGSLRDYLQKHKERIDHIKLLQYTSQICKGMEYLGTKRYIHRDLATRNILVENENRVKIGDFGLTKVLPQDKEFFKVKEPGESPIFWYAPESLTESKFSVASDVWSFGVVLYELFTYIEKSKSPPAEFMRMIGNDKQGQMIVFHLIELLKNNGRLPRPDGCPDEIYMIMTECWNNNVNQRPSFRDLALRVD

| Kd [nM] | Structure (SMILES) |
| --- | --- |
| < 10 | Cn1cc(C(F)(F)F)cc(Nc2nc3ncc(Oc4cnc5[nH]ccc5c4F)c(C#N)c3n2C)c1=O [Example I-335, 6-((4-fluoro-1H-pyrrolo[2,3-b]pyridin-5-yl)oxy)-1-methyl-2-((1-methyl-2-oxo-5-(trifluoromethyl)-1,2-dihydropyridin-3-yl)amino)-1H-imidazo[4,5-b]pyridine-7-carbonitrile] |
| < 10 | Cn1cc(C(F)(F)F)cc(Nc2nc3ncc(Oc4cnn5cc(OCCN6CCOCC6)ccc45)c(C#N)c3n2C)c1=O [Example I-336, 1 1-methyl-2-((1-methyl-2-oxo-5-(trifluoromethyl)-1,2-dihydropyridin-3-yl)amino)-6-((6-(2-morpholinoethoxy)pyrazolo[1,5-a]pyridin-3-yl)oxy)-1H-imidazo[4,5-b]pyridine-7-carbonitrile] |
| < 10 | Cn1cc(C(F)(F)F)cc(Nc2nc3ncc(Oc4cnc5[nH]nc(C6CC6)c5c4)c(C#N)c3n2C)c1=O [Example I-337, 6-((3-cyclopropyl-1H-pyrazolo[3,4-b]pyridin-5-yl)oxy)-1-methyl-2-((1-methyl-2-oxo-5-(trifluoromethyl)-1,2-dihydropyridin-3-yl)amino)-1H-imidazo[4,5-b]pyridine-7-carbonitrile] |
| < 10 | CNc1cn2ncc(Oc3cnc4nc(Nc5cc6n(n5)CCCC6(C)C)n(C)c4c3Cl)c2cn1 [Example I-338, 7-chloro-N-(4,4-dimethyl-4,5,6,7-tetrahydropyrazolo[1,5-a]pyridin-2-yl)-1-methyl-6-((6-(methylamino)pyrazolo[1,5-a]pyrazin-3-yl)oxy)-1H-imidazo[4,5-b]pyridin-2-amine] |
| < 10 | CNc1cn2ncc(Oc3cnc4nc(Nc5cc(-n6cnc(C)c6)cc(C(F)(F)F)c5)n(C)c4c3Cl)c2cn1 [Example I-339, 7-chloro-1-methyl-N-(3-(4-methyl-1H-imidazol-1-yl)-5-(trifluoromethyl)phenyl)-6-((6-(methylamino)pyrazolo[1,5-a]pyrazin-3-yl)oxy)-1H-imidazo[4,5-b]pyridin-2-amine] |
| < 10 | CNc1cn2ncc(Oc3cnc4nc(Nc5cc(C(F)(F)F)n([C@@H]6CCOC6)n5)n(C)c4c3Cl)c2cn1 [Example I-340, (R)-7-chloro-1-methyl-6-((6-(methylamino)pyrazolo[1,5-a]pyrazin-3-yl)oxy)-N-(1-(tetrahydrofuran-3-yl)-5-(trifluoromethyl)-1H-pyrazol-3-yl)-1H-imidazo[4,5-b]pyridin-2-amine] |
| < 10 | Cc1n[nH]c2ncc(Oc3cnc4nc(Nc5cc(C(F)(F)F)cn(C)c5=O)n(C)c4c3C#N)cc12 [Example I-341, 1-methyl-6-((3-methyl-1H-pyrazolo[3,4-b]pyridin-5-yl)oxy)-2-((1-methyl-2-oxo-5-(trifluoromethyl)-1,2-dihydropyridin-3-yl)amino)-1H-imidazo[4,5-b]pyridine-7-carbonitrile] |
| 10 to 50 | Cn1c(Nc2ccc(CN3CCCC3)c(C(F)(F)F)c2)nc2ncc(Oc3cnn4ccncc34)c(C#N)c21 [Example I-342, 1-methyl-6-(pyrazolo[1,5-a]pyrazin-3-yloxy)-2-((4-(pyrrolidin-1-ylmethyl)-3-(trifluoromethyl)phenyl)amino)-1H-imidazo[4,5-b]pyridine-7-carbonitrile] |
| 10 to 50 | CCn1c(C(C)(C)C)ncc(Nc2nc3ncc(Oc4cnn5cc(NC)ncc45)c(Cl)c3n2C)c1=O [Example I-345, 2-(tert-butyl)-5-((7-chloro-1-methyl-6-((6-(methylamino)pyrazolo[1,5-a]pyrazin-3-yl)oxy)-1H-imidazo[4,5-b]pyridin-2-yl)amino)-3-ethylpyrimidin-4(3H)-one] |
| 10 to 50 | CNc1cn2ncc(Oc3cnc4nc(Nc5cc(C(C)(C)C)n([C@H]6CCN(C)C6)n5)n(C)c4c3Cl)c2cn1 [Example I-346, (S)—N-(5-(tert-butyl)-1-(1-methylpyrrolidin-3-yl)-1H-pyrazol-3-yl)-7-chloro-1-methyl-6-((6-(methylamino)pyrazolo[1,5-a]pyrazin-3-yl)oxy)-1H-imidazo[4,5-b]pyridin-2-amine] |
| 50 to 1000 | CNc1cn2ncc(Oc3cnc4nc(Nc5cc(C(C)(C)C)n([C@@H]6CCN(C)C6)n5)n(C)c4c3Cl)c2cn1 [Example I-347, (R)—N-(5-(tert-butyl)-1-(1-methylpyrrolidin-3-yl)-1H-pyrazol-3-yl)-7-chloro-1-methyl-6-((6-(methylamino)pyrazolo[1,5-a]pyrazin-3-yl)oxy)-1H-imidazo[4,5-b]pyridin-2-amine] |
| 10 to 50 | CNc1cn2ncc(Oc3cnc4nc(Nc5cc(C(=O)N(C)C)c(F)c(C(F)(F)F)c5)n(C)c4c3Cl)c2cn1 [Example I-348, 5-((7-chloro-1-methyl-6-((6-(methylamino)pyrazolo[1,5-a]pyrazin-3-yl)oxy)-1H-imidazo[4,5-b]pyridin-2-yl)amino)-2-fluoro-N,N-dimethyl-3-(trifluoromethyl)benzamide] |
| < 10 | COc1c[nH]c2ncc(Oc3cnc4nc(Nc5cc(C(F)(F)F)cn(C)c5=O)n(C)c4c3C#N)cc12 [Example I-349, 6-((3-methoxy-1H-pyrrolo[2,3-b]pyridin-5-yl)oxy)-1-methyl-2-((1-methyl-2-oxo-5-(trifluoromethyl)-1,2-dihydropyridin-3-yl)amino)-1H-imidazo[4,5-b]pyridine-7-carbonitrile] |
| 10 to 50 | CNc1cn2ncc(Oc3cnc4nc(Nc5cc(N6CCN(C)CC6)cc(C(F)(F)F)c5)n(C)c4c3Cl)c2cn1 [Example I-351, 7-chloro-1-methyl-6-((6-(methylamino)pyrazolo[1,5-a]pyrazin-3-yl)oxy)-N-(3-(4-methylpiperazin-1-yl)-5-(trifluoromethyl)phenyl)-1H-imidazo[4,5-b]pyridin-2-amine] |
| < 10 | CNc1cn2ncc(Oc3cnc4nc(Nc5cc(C6CCN(C)CC6)cc(C(F)(F)F)c5)n(C)c4c3Cl)c2cn1 [Example I-353, 7-chloro-1-methyl-6-((6-(methylamino)pyrazolo[1,5-a]pyrazin-3-yl)oxy)-N-(3-(1-methylpiperidin-4-yl)-5-(trifluoromethyl)phenyl)-1H-imidazo[4,5-b]pyridin-2-amine] |
| < 10 | CNc1cc(F)c2c(Oc3cnc4nc(Nc5cc(C(F)(F)F)cn(C)c5=O)n(C)c4c3Cl)cnn2c1 [Example I-354, 3-((7-chloro-6-((4-fluoro-6-(methylamino)pyrazolo[1,5-a]pyridin-3-yl)oxy)-1-methyl-1H-imidazo[4,5-b]pyridin-2-yl)amino)-1-methyl-5-(trifluoromethyl)pyridin-2(1H)-one] |
| < 10 | COCCOc1ccc2c(Oc3cnc4nc(Nc5cc(C(F)(F)F)cn(C)c5=O)n(C)c4c3Cl)cnn2c1 [Example I-355, 3-((7-chloro-6-((6-(2-methoxyethoxy)pyrazolo[1,5-a]pyridin-3-yl)oxy)-1-methyl-1H-imidazo[4,5-b]pyridin-2-yl)amino)-1-methyl-5-(trifluoromethyl)pyridin-2(1H)-one] |
| 10 to 50 | CNc1cn2ncc(Oc3cnc4nc(Nc5cc(CN6CC7(COC7)C6)cc(C(F)(F)F)c5)n(C)c4c3Cl)c2cn1 [Example I-356, N-(3-((2-oxa-6-azaspiro[3.3]heptan-6-yl)methyl)-5-(trifluoromethyl)phenyl)-7-chloro-1-methyl-6-((6-(methylamino)pyrazolo[1,5-a]pyrazin-3-yl)oxy)-1H-imidazo[4,5-b]pyridin-2-amine] |
